Results: patent US20250387379A1, “ARYL-ANILINE AND HETEROARYL-ANILINE COMPOUNDS FOR TREATMENT OF SKIN CANCERS” (NFLECTION THERAPEUTICS, INC., priority 2018, published 2025)

Legend:
[1] = topical application; cited from earlier work
MAP2K1 (MEK1) = MAP2K1 (MEK1) (Homo sapiens (Human), UniProt Q02750); experiment: MEK Inhibition Assay-2 (Z'-LYTE biochemical assay; Example 5); settings: Table 6, Z'-LYTE procedure of Example 5; read-out: IC50 against MEK1
Description: MEK1 inhibitory activity of compounds were tested using the following procedure (protocol available at thermofisher.com/content/dam/LifeTech/migration/files/drug-discovery/pdfs.par.60256.file.dat/20130430%20ssbk%20customer%20protocol%20and%20assay%20conditions.pdf). The Z′-LYTE biochemical assay (ThermoFisher) employs a fluorescence-based, coupled-enzyme format and is based on the differential sensitivity of phosphorylated and non-phosphorylated peptides to proteolytic cleavage.
Test compounds in 100% DMSO were screened in 1% DMSO (final) in the well. For 10 point titrations, 3-fold serial dilutions are conducted from the starting concentration of 30 μM.
After the 1 hour incubation, 5 μL of a 1:1024 dilution of Development Reagent A (available from Invitrogen, catalog no. PV3295) was added.
ATP solutions were diluted to a 4× working concentration in Kinase Buffer (50 mM HEPES pH 7.5, 0.01% BRIJ-35, 10 mM MgCl2, 1 mM EGTA). ATP Km apparent was previously determined using a Z′-LYTE assay. The Development Reagent was diluted in Development Buffer (available from Invitrogen, catalog no. P3127).
Assay Protocol: 2.5 μL of 4× test compound or 100 nL of 100× Test Compound plus 2.4 μL Kinase Buffer, 5 μL of the 2× Peptide/Kinase Mixture, 2.5 μL of 4×ATP Solution were added to the plates and placed on a shake plate for 30-seconds. The kinase reaction was allowed to proceed for 60-minute at room temperature, before 5 μL of Development Reagent Solution was added, and the mixture agitated for 30-seconds on a shake plate. The mixture was incubated for 60-minute at room temperature. Fluorescence was measured using a plate reader and the data were analyzed.
This control yielded 100% cleaved peptide in the Development Reaction. The 100% Phosphorylation Control, which consisted of a synthetically phosphorylated peptide of the same sequence as the peptide substrate, was designed to allow for the calculation of percent phosphorylation. This control yielded a very low percentage of cleaved peptide in the Development Reaction. The 0% Phosphorylation and 100% Phosphorylation Controls allow for the calculation of the percent phosphorylation achieved in a specific reaction well.
The minimum emission ratio in a screen was established by the 0% Inhibition Control, which contained active kinase. This control was designed to produce a 10-50% phosphorylated peptide in the Kinase Reaction. Cascade assays may produce up to 70% phosphorylated peptide.
A known inhibitor control standard curve, 10 point titration, was run for each individual kinase on the same plate as the kinase to ensure the kinase was inhibited within an expected IC50 range previously determined.
The following controls are prepared for each concentration of Test Compound assayed. […] The expected value for a non-interfering compound should be 100%. Any value outside of 90% to 110% was flagged. […] The expected value for a non-fluorescence compound should be 0%. Any value >20% was flagged.
The data in Table A was calculated. XLfit from IDBS was used. The dose response curve was curve fit to model number 205 (sigmoidal dose-response model).

[2] = tested on: cutaneous squamous-cell carcinoma tumors
skin tumors = settings: oral; trametinib 2 mg/kg/day, cobimetinib 10 mg/kg/day; chronic, low-dose, solar simulated UV light; cited from earlier work

Chain of MAP2K1 (MEK1) (Q02750 whole entry): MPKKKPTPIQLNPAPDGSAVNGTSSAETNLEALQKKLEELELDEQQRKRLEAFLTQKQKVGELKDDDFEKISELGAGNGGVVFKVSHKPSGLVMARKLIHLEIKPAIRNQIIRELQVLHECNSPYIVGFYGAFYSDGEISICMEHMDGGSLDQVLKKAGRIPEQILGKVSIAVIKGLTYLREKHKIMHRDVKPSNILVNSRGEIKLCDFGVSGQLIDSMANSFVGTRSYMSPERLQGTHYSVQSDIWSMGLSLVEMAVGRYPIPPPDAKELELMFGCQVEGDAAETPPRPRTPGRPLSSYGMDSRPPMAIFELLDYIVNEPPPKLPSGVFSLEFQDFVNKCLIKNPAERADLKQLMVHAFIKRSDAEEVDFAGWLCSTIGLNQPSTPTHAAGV

IC50 (MAP2K1 (MEK1)) | Compound | other results
≤ 150 nM | O=C1CCCc2c1sc(Nc1ccc(I)cc1F)c2C(=O)NOCCO [Compound 4.029] | –
≤ 150 nM | O=C1CCCc2c1sc(Nc1ccc(I)cc1F)c2C(=O)NOC[C@H](O)CO [Compound 4.030] | –
≤ 150 nM | O=C1CCCc2c1sc(Nc1ccc(I)cc1F)c2C(=O)NOCC1CC1 [Compound 4.032] | –
≤ 150 nM | NCCONC(=O)c1c(Nc2ccc(I)cc2F)sc2c1CCCC2=O [Compound 4.033] | –
≤ 150 nM | O=C1CCCc2c1sc(Nc1ccc(I)cc1F)c2C(=O)NC[C@H](O)CO [Compound 4.034] | –
≤ 150 nM | O=C1CCCc2c1sc(Nc1ccc(I)cc1F)c2C(=O)NC[C@@H](O)CO [Compound 4.035] | –
≤ 150 nM | O=c1c2c(Nc3ccc(I)cc3F)cncc2ccn1C[C@@H](O)CO [Compound 5.001] | –
≤ 150 nM | O=c1c2c(Nc3ccc(I)cc3F)cncc2ccn1C[C@H](O)CO [Compound 5.002] | –
> 1500 nM | O=C(O)Cn1ccc2cncc(Nc3ccc(I)cc3F)c2c1=O [Compound 5.004] | –
> 1500 nM | COC(=O)Cn1ccc2cncc(Nc3ccc(I)cc3F)c2c1=O [Compound 5.005] | –

The remaining lines, values behind:

Compound | IC50 (MAP2K1 (MEK1)) | other results
O=c1[nH]cc(F)c(=O)[nH]1 [5-fluorouracil] | – | patients who experienced at least 1 adverse event ranging from mild to severe [1]: ≤ 97%
N#Cc1ccc(C(=O)N2CC(O)C2)c(Nc2ccc(I)cc2F)c1 [Compound 1.002] | > 1500 nM | –
N#Cc1ccc(C(=O)NOCCO)c(Nc2ccc(I)cc2F)c1 [Compound 1.010] | ≤ 150 nM | –
N#Cc1ccc(C(=O)NO)c(Nc2ccc(I)cc2F)c1 [Compound 1.017] | ≤ 150 nM | –
COC(=O)CCONC(=O)c1ccc(C#N)cc1Nc1ccc(I)cc1F [Compound 1.022] | > 1500 nM | –
N#Cc1ccc(C(=O)NOCCO)c(Nc2ccc(I)cc2F)c1F [Compound 1.030] | ≤ 150 nM | –
N#Cc1ccc(C(=O)NOCC2CC2)c(Nc2ccc(I)cc2F)c1F [Compound 1.031] | ≤ 150 nM | –
Cn1c(Nc2ccc(I)cc2F)c(C(=O)NOCCO)c2cccnc21 [Compound 2.003] | – | body weight loss of treated mice ([2]; topical delivery): none of the mice lost weight; tumor formation versus topical vehicle (placebo) ([2]; topical gel 0.01%, 0.15%, 0.5% by weight, 30 day course of treatment, first 12 mice): mice treated with the topical vehicle (placebo) formed substantially more tumors than those treated with Compound 2.003 at all concentrations; tumor induction (new tumors per mouse) ([2]; topical gel 0.5%, 0.15%, 0.01%, FIG. 5): completely suppress tumor induction; size of existing tumors (tumor volume per mouse) ([2]; topical gel 0.5%, 0.15%, 0.01%, FIG. 6): reduce the size of existing tumors
O=C(c1ccc(F)c(F)c1Nc1ccc(I)cc1F)N1CC(O)([C@@H]2CCCCN2)C1 [cobimetinib] | – | reduction of skin tumors (skin tumors): effective in reducing skin tumors
CC(C)Cn1cnc2c(N)nc3ccccc3c21 [imiquimod, Imiquimod] | – | patients who experienced at least 1 adverse event ranging from mild to severe [1]: Up to 100%
CC(=O)Nc1cccc(-n2c(=O)n(C3CC3)c(=O)c3c(Nc4ccc(I)cc4F)n(C)c(=O)c(C)c32)c1 [trametinib] | – | reduction of skin tumors (skin tumors): effective in reducing skin tumors
